The record followed here is US5583104A, “Treatment of proliferation of bile duct epithelium” (Mayo Foundation for Medical Research and Education, priority 1993, dated 1996).

This test concerns human cholangiocarcinoma cell line SK-ChA-1. Briefly: Anti-proliferative MTT assay on human cholangiocarcinoma cell line SK-ChA-1. As to conditions: for inhibiting the growth of the human cholangiocarcinoma cell line: FIGS. 1 and 2, both experiments, non-dose dependent; for Percent Protection, Day 8: first experiment (Table I); for Percent Protection Day 4: second experiment (Table II). In kind it is cell-based. The protocol: The human cholangiocarcinoma cell line SK-ChA-1 was grown from malignant ascites of a patient with primary adenocarcinoma of the extrahepatic biliary tree. See Knuth, et al. J. of Hepatology 1:579 (1985), hereby incorporated by reference.
SK-ChA-1 cells were plated (100 μl) into 96-well culture plates (Falcon) at a density of 50,000 cells/ml in Dulbecco's modified Eagle's medium (DMEM/HAMSF12 (50:50)) with 2% fetal calf serum (FCS, Hyclone) and antibiotics (penicillin 100 IU/ml, streptomycin 100 μg/ml and amphotericin B 2.5 μg/ml). After 18 hours, the medium was replaced with fresh medium with or without the two test drugs, natural somatostatin-14 and the somatostatin agonist octreotide. The experiments were performed in triplicate. Wells without the addition of any test drug served as normal controls. All media, with the appropriate concentration of test drug, were changed every two days.
The amount of viable cells were assayed every two days using 3-(4,5-[…])-2,5-diphenyl tetrazolium (MTT) according to method published by Tada, J. Immunol. Meth. 93:157 (1986), hereby incorporated by reference. Optical density was read by a 96-well automatic microplate reader (molecular Devices) at a test wavelength of 570 nm and a reference wavelength of 630 nm. An experiment had validated the correlation of the MTT assay (r=0.975, p=0.004) with a wide range of cell concentrations (3,000 to 330,000 cells/ml) counted with the hemocytometer. Cell proliferation curves with respect to time and test drug concentration were plotted with control wells as the baseline for comparison.
Two experiments were performed using this assay. […] The second experiment was performed at concentrations of 10^-5 M to 10^-10 M (in one log increments) and assayed every two days until day 8.

The mark [1] stands for this setting: drug concentration 1 × 10^-5 M, MTT viable cells vs control wells.
[2] abbreviates: drug concentration 1 × 10^-10 M.

As to `C[C@@H](O)[C@@H]1NC(=O)[C@H](CCCCN)NC(=O)[C@@H](Cc2c[nH]c3ccccc23)NC(=O)[C@H](Cc2ccccc2)NC(=O)[C@@H](NC(=O)[C@H](N)Cc2ccccc2)CSSC[C@@H](C(=O)N[C@H](CO)[C@@H](C)O)NC1=O` [Octreotide, H-D-Phe-Cys-Phe-D-Trp-Lys-Thr-Cys-threoninol], the “inhibiting the growth of the human cholangiocarcinoma cell line” value is given as “effective in inhibiting the growth”. Also, the “Percent Protection, Day 8” value under setting [1] stood at 79.1%. For the same compound, for the setting “drug concentration 1 × 10^-6 M”, the “Percent Protection, Day 8” value is 92.2% and the “Percent Protection Day 4” value came to 52.9%. For the same compound, for the setting “drug concentration 1 × 10^-7 M”, the “Percent Protection, Day 8” value came out at 78.4% and the “Percent Protection Day 4” value was found to be 44.4%. Moreover, for the setting “drug concentration 1 × 10^-8 M”, the “Percent Protection, Day 8” value amounted to 61.0% and the “Percent Protection Day 4” value is 46.8%. Moreover, where the note is “drug concentration 1 × 10^-5 M”, the “Percent Protection Day 4” value turned out to be 62.6%. For the same compound, the “Percent Protection Day 4” value (drug concentration 1 × 10^-9 M) is 61.7%. Besides, the “Percent Protection Day 4” value under setting [2] was found to be 50.4%.
On to `C[C@H](N)C(=O)NCC(=O)N[C@H]1CSSC[C@@H](C(=O)O)NC(=O)[C@H](CO)NC(=O)[C@H]([C@@H](C)O)NC(=O)[C@H](Cc2ccccc2)NC(=O)[C@H]([C@@H](C)O)NC(=O)[C@H](CCCCN)NC(=O)[C@H](Cc2c[nH]c3ccccc23)NC(=O)[C@H](Cc2ccccc2)NC(=O)[C@H](Cc2ccccc2)NC(=O)[C@H](CC(N)=O)NC(=O)[C@H](CCCCN)NC1=O` [Somatostatin], for which the “inhibiting the growth of the human cholangiocarcinoma cell line” value is reported as “effective in inhibiting the growth”. Besides, the “Percent Protection, Day 8” value under setting [1] was 94.9%. For the same compound, for the setting “drug concentration 1 × 10^-6 M”, the “Percent Protection, Day 8” value turned out to be 66.8% and the “Percent Protection Day 4” value is recorded as 47.5%. For the setting “drug concentration 1 × 10^-7 M”, the “Percent Protection, Day 8” value came out at 89.9% and the “Percent Protection Day 4” value is given as 42.6%. In addition, the “Percent Protection Day 4” value (drug concentration 1 × 10^-5 M) came out at 54.3%. In addition, under “drug concentration 1 × 10^-8 M”, the “Percent Protection Day 4” value was determined as 50.2%. The “Percent Protection Day 4” value (drug concentration 1 × 10^-9 M) was 50.4%. In addition, the “Percent Protection Day 4” value under setting [2] was 62.3%.
